From PubChem BioAssay (NCI) come the findings set out here.

Test systems include ACHN renal; HCC-2998 colon; OVCAR-3 ovarian; RXF 393 renal; SF-539 CNS; SK-MEL-5 melanoma; HS 578T breast; NCI-H226 lung; OVCAR-4 ovarian; SR leukemia.
Common to all, as to assay: NCI-60 cell line screen, 48 h

Values joined by “and” are separate entries in the source; they are usually repeats but may differ in a detail not shown here. Identical values can stand only once.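 In this assay, cells in 96-well plates receive the compound at five concentrations for 48 hours. Endpoints are linearly interpolated between the surrounding concentrations. GI50 = concentration required for 50% inhibition of growth. TGI marks complete inhibition of growth.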

On to `O=[N+]([O-])c1cccc(C2=NN(c3ccccc3)C3c4cc(Br)ccc4OCC23)c1` (stereo unspecified), for which the TGI in the test on ACHN renal, in the test with HCC-2998 colon, with OVCAR-3 ovarian, in the test with RXF 393 renal, with SF-539 CNS and in the test on SK-MEL-5 melanoma was greater than 100 µM in each case.
On to `COC(=O)c1ccccc1C1CN=NC12Cc1c(ccc(C)c1C)C2=O` (stereo unspecified), for which the TGI with ACHN renal, with HCC-2998 colon, in the test with HS 578T breast, with NCI-H226 lung, in the test on OVCAR-3 ovarian and in the test with OVCAR-4 ovarian was greater than 100 µM in each case. The TGI with RXF 393 renal and in the test with SK-MEL-5 melanoma was greater than 100 µM throughout.
For the compound `CCCCCCCC(=O)OCC(COC(=O)C(C)(C)C)OC(=O)Cc1ccccc1` (stereo unspecified), the TGI in the test with ACHN renal, with HCC-2998 colon, with NCI-H226 lung, with OVCAR-3 ovarian, in the test on OVCAR-4 ovarian and in the test on SK-MEL-5 melanoma was greater than 100 µM in each case.
`C[C@]12CCC3[C@@H](CCC45OC4C(=O)CC[C@]35C)C1Cc1cnn(-c3ccc(F)cc3)c1N2` (stereo partly specified): the TGI in the test on ACHN renal is greater than 100 µM; in the test with NCI-H226 lung, greater than 100 µM; in the test on RXF 393 renal, 87.2 µM; in the test on SK-MEL-5 melanoma, greater than 100 µM; in the test with SR leukemia, greater than 100 µM.
For `CCCCCCCCCCCCCCCCCCOc1ccccc1CC(=O)NCC[N+]1(C)CCOCC1`, the GI50 with ACHN renal is 16 µM; in the test with HCC-2998 colon, 2.08 µM; in the test on HS 578T breast, 2.38 µM; with NCI-H226 lung, 4.9 µM; with OVCAR-3 ovarian it was 4.43 µM; in the test with OVCAR-4 ovarian, 6.42 µM. The GI50 with SF-539 CNS is 3.35 µM; in the test with SK-MEL-5 melanoma, 3 µM. The TGI was determined as 44.6 µM in the test on ACHN renal; 7.09 µM in the test with HCC-2998 colon; 9.56 µM with HS 578T breast; 89 µM with NCI-H226 lung; 34.2 µM with OVCAR-3 ovarian; 23.3 µM in the test on OVCAR-4 ovarian. In addition, the TGI in the test with SF-539 CNS is 12.8 µM; in the test on SK-MEL-5 melanoma, 16.1 µM.
Regarding `Cc1cc([N+](=O)[O-])c(C)c2c1[nH]c1ccc(Cl)cc12`, the TGI in the test with ACHN renal, with HCC-2998 colon, with NCI-H226 lung, in the test on OVCAR-3 ovarian, with OVCAR-4 ovarian and in the test with SF-539 CNS was greater than 100 µM each time. In addition, the TGI in the test with SK-MEL-5 melanoma and in the test on SR leukemia was greater than 100 µM throughout.
Turning to `CC1CC(N2CCOCC2)=Nc2ccccc2N1C` (stereo unspecified), the TGI in the test with ACHN renal, in the test with HS 578T breast, in the test with NCI-H226 lung, with OVCAR-3 ovarian, with OVCAR-4 ovarian and with RXF 393 renal was greater than 100 µM each time. Also, the TGI in the test with SF-539 CNS and with SK-MEL-5 melanoma was greater than 100 µM in each case.
For the compound `O=C(/C=C/c1ccc(O)c(O)c1)OCCc1ccc2ccccc2c1`, the TGI in the test with ACHN renal turned out to be 15.1 µM; with HCC-2998 colon it was 30.9 µM; in the test on HS 578T breast it was 24.1 µM; with NCI-H226 lung, 32.3 µM; with OVCAR-3 ovarian it was 12.4 µM; with RXF 393 renal, 21.6 µM. The TGI in the test on SF-539 CNS stood at 19.1 µM; with SK-MEL-5 melanoma it was 13.2 µM.
As for `CCc1c(O)cc(=O)oc1-c1ccc(OC)c(OC)c1`, the TGI in the test on ACHN renal, with HCC-2998 colon, with HS 578T breast, in the test on OVCAR-3 ovarian, in the test on OVCAR-4 ovarian and in the test with RXF 393 renal was greater than 100 µM in each case. In addition, the TGI with SF-539 CNS and with SK-MEL-5 melanoma was greater than 100 µM each time.
`O=C1C=CC2(O[C@H](c3ccccc3)[C@@H](c3ccccc3)O2)[C@H](Sc2ccccc2O)C1`: the TGI with ACHN renal was determined as 1.07 µM; in the test on HCC-2998 colon, 1.63 µM; with HS 578T breast, 7.88 µM; with NCI-H226 lung, 5.43 µM; with OVCAR-3 ovarian, 1.51 µM; with OVCAR-4 ovarian it was 2.43 µM. The TGI in the test on RXF 393 renal stood at 0.524 µM; in the test with SF-539 CNS, 1.7 µM; with SK-MEL-5 melanoma it was 2.22 µM.
`O=C(c1ccco1)N(C(=O)N1CCCCC1)c1ccccc1`: the TGI in the test on ACHN renal, in the test with HS 578T breast, in the test on NCI-H226 lung, with OVCAR-3 ovarian, in the test on RXF 393 renal and with SF-539 CNS was greater than 100 µM each time. In the test on SK-MEL-5 melanoma, this compound showed a TGI greater than 100 µM.
On to `CN(C)CCn1c(=O)c2ccc(NCCCN(C)CCCNc3ccc4c(=O)n(CCN(C)C)c(=O)n5c6ccc(O)cc6c(=O)c3c45)c3c(=O)c4cc(O)ccc4n(c1=O)c23`, for which the TGI in the test on ACHN renal came out at 0.726 µM; in the test on HCC-2998 colon, 0.173 µM; in the test on NCI-H226 lung, 0.0488 µM; in the test on OVCAR-4 ovarian, 0.177 µM; in the test with RXF 393 renal it was 0.215 µM; in the test with SF-539 CNS, 1.84 µM. Besides, the TGI in the test with SK-MEL-5 melanoma was determined as 0.171 µM; in the test with SR leukemia it was 0.642 µM.
Consider `Cc1c2ccnc(C(N)=O)c2c(C)c2c1[nH]c1ccccc12`, for which the TGI was 13.8 µM in the test with ACHN renal; 50 µM and 19.4 µM with HCC-2998 colon; 19.8 µM and 15.7 µM in the test with NCI-H226 lung; 34.8 µM and 32.1 µM with OVCAR-3 ovarian; 29.7 µM and 93.7 µM in the test on OVCAR-4 ovarian; 16.6 µM in the test with RXF 393 renal. Also, the TGI was 23.9 µM and 13.9 µM in the test with SF-539 CNS; 13.6 µM in the test with SK-MEL-5 melanoma. Moreover, the GI50 with HCC-2998 colon was 4.67 µM; with NCI-H226 lung, 3.28 µM; in the test on OVCAR-3 ovarian it was 5.94 µM; in the test with OVCAR-4 ovarian, 7.56 µM; in the test with SF-539 CNS, 3.75 µM.
For `N#Cc1c(-c2ccc([N+](=O)[O-])cc2)cc(-c2ccc(Nc3ccnc4cc(Cl)ccc34)cc2)[nH]c1=O`, the TGI in the test on ACHN renal, with HCC-2998 colon, in the test with NCI-H226 lung, with OVCAR-3 ovarian, in the test with OVCAR-4 ovarian and in the test with RXF 393 renal was greater than 100 µM each time. Moreover, the TGI in the test on SF-539 CNS and in the test on SR leukemia was greater than 100 µM each time.
`CC1=NN(C(=O)Cc2ccccc2)C(=O)/C1=C\c1ccc(O)cc1`: the TGI in the test on ACHN renal, in the test with HCC-2998 colon, with NCI-H226 lung, with OVCAR-3 ovarian, in the test with OVCAR-4 ovarian and in the test on RXF 393 renal was greater than 100 µM in each case. Also, the TGI in the test on SF-539 CNS and in the test on SK-MEL-5 melanoma was greater than 100 µM throughout.
